Test results from EP4589010A1, “SCREENING METHOD FOR OFFENSIVE ODOR SUPPRESSING MATERIAL” (priority 2022, dated 2024).

Assays:
[1] = test system: broadly tuned olfactory receptor OR2W1; conditions: cited from earlier work
[2] = test system: cells that do not express olfactory receptors; test: Luciferase assay, mock test; type: cell-based
Method: 0.05 µg of human olfactory receptor gene expression vector, 0.01 µg of RTP1S vector, and 0.01 µg of firefly luciferase vector pGloSensor™-22F cAMP Plasmid (Promega) containing CMV promoter were dissolved in 10 µL of Opti-MEM I (Gibco) to prepare a gene solution (per well). HEK293T cells were seeded at 100 µL per well in a 96-well plate (Biocoat, Corning) at a number of cells that reached subconfluence after 24 hours, and the gene solution was added to each well by lipofection according to the usage of Lipofectamine 3000 so that the cells were transfected with the gene and cultured at 37°C in a 5% carbon dioxide atmosphere for 24 hours. […] Then, 10 µL of 10 mM hexanal solution prepared in HEPES buffer supplemented with 300 µM CuCl2 and FBS was added to each well, and the changes in the response value of the luciferase activity over time were measured every minute immediately after the addition, thus obtaining the responses of approximately 400 human olfactory receptors to hexanal. The magnitude of the olfactory receptor response was expressed as a fold increase value obtained by dividing the maximum response value of luciferase activity that occurred after stimulation with hexanal by the luciferase activity before the stimulation with hexanal. […]

olfactory receptor OR5K1 = test: Luciferase (GloSensor cAMP) assay, response of olfactory receptor to hexanal; type: cell-based, human; conditions: HEK293T cells expressing OR5K1; various hexanal concentrations; Figure 4
Method: (§1) 0.05 µg of human olfactory receptor gene expression vector, 0.01 µg of RTP1S vector, and 0.01 µg of firefly luciferase vector pGloSensor™-22F cAMP Plasmid (Promega) containing CMV promoter were dissolved in 10 µL of Opti-MEM I (Gibco) to prepare a gene solution (per well). HEK293T cells were seeded at 100 µL per well in a 96-well plate (Biocoat, Corning) at a number of cells that reached subconfluence after 24 hours, and the gene solution was added to each well by lipofection according to the usage of Lipofectamine 3000 so that the cells were transfected with the gene and cultured at 37°C in a 5% carbon dioxide atmosphere for 24 hours. After removal of the culture solution, the cells were washed once with HEPES buffer, and 100 µL of GloSensor™ cAMP Reagent (Promega), adjusted to a predetermined concentration with HEPES buffer supplemented with FBS, was added to each well, and allowed to stand for 2 hours at room temperature. Then, 10 µL of 10 mM hexanal solution prepared in HEPES buffer supplemented with 300 µM CuCl2 and FBS was added to each well, and the changes in the response value of the luciferase activity over time were measured every minute immediately after the addition, thus obtaining the responses of approximately 400 human olfactory receptors to hexanal. The magnitude of the olfactory receptor response was expressed as a fold increase value obtained by dividing the maximum response value of luciferase activity that occurred after stimulation with hexanal by the luciferase activity before the stimulation with hexanal. Accordingly, OR2C1, OR2J2, OR2J3, OR5K1, OR5P3 and OR51E1 were identified as candidate olfactory receptors responsive to hexanal. After that, an aroma compound as a sample was prepared in HEPES buffer supplemented with 300 µM CuCl2 and FBS to a concentration 10 times the final concentration. 10 µL this aroma compound stimulation solution was added to each well, and the changes in the luciferase activity over time were measured every minute immediately after the addition to obtain the responses of approximately 400 human olfactory receptors to the aroma compound. The magnitude of the response of the olfactory receptor was expressed as a fold increase value determined by dividing the maximum luciferase activity value that occurred by the stimulation with the aroma compound by the luciferase activity before the stimulation with the aroma compound.
(§2) The responses of hexanal, which is an offensive odor-causing substance, to the olfactory receptors OR2C1, OR2J2, OR2J3, OR5K1, OR5P3 and OR51E1 were measured at various concentrations by the luciferase activity assay described above.

olfactory receptor OR2C1 = test: as above; type: cell-based, human; conditions: HEK293T cells expressing OR2C1; various hexanal concentrations; Figure 1
Method: as §1, §2

olfactory receptor OR2J3 = test: as above; type: cell-based, human; conditions: HEK293T cells expressing OR2J3; various hexanal concentrations; Figure 3
Method: as §1, §2

olfactory receptor OR5P3 = test: as above; type: cell-based, human; conditions: HEK293T cells expressing OR5P3; various hexanal concentrations; Figure 5
Method: as §1, §2

[3] = test system: olfactory receptor OR51E1; test: as above; type: cell-based, human; conditions: HEK293T cells expressing OR51E1; various hexanal concentrations; Figure 6
Method: as §1, §2

olfactory receptor OR2J2 = test: as above; type: cell-based, human; conditions: HEK293T cells expressing OR2J2; various hexanal concentrations; Figure 2
Method: as §1, §2

Row | Structure (SMILES) | suppression of the OR2W1 response ([1]; masking agent against hexanal, Non-patent literature 6) | hexanal response of OR2W1 ([1]; in vitro tests, prior art) | response to hexanal in the mock test [2] | response of olfactory receptor OR5K1 to hexanal (fold increase value) (olfactory receptor OR5K1) | response of olfactory receptor OR2C1 to hexanal (fold increase value) (olfactory receptor OR2C1) | response of olfactory receptor OR2J3 to hexanal (fold increase value) (olfactory receptor OR2J3) | response of olfactory receptor OR5P3 to hexanal (fold increase value) (olfactory receptor OR5P3) | response of olfactory receptor OR51E1 to hexanal (fold increase value) [3] | response of olfactory receptor OR2J2 to hexanal (fold increase value) (olfactory receptor OR2J2)
1 | CC1=CCC2CC1C2(C)C (stereo not drawn) [alpha-pinene] | suppress the OR2W1 response |  |  |  |  |  |  |  | 
2 | CCCCCC=O [hexanal] |  | concentration-dependent hexanal response | no response was observed | concentration-dependent responses | concentration-dependent responses | concentration-dependent responses | concentration-dependent responses | concentration-dependent responses | concentration-dependent responses
